Assay [1] concerns the target Multidrug resistance-associated protein 1 (Homo sapiens, UniProt P33527). The assay is described as follows: Inhibition of multidrug resistance associated protein type 1 (MRP1) assayed by an accumulation assay in COR.L23/R cells. It is filed as functional, cell-based.
The target of assay [2] is ATP-dependent translocase ABCB1 (Mus musculus, UniProt P06795). Kind of assay: Inhibitory activity against P-glycoprotein (Pgp) using accumulation assay for Pgp expressing EMT6/AR1.0 cells. It is filed as functional.
The next assay deals with EMT6. The assay is described as follows: Compound was evaluated for its inhibitory activity against P-glycoprotein (Pgp) using potentiation assay. The settings on record: Mus musculus. It is filed as functional, cell-based.
Assay [3] in a line: Compound was evaluated for its inhibitory activity against multidrug resistance associated protein type 1 (MRP) using potentiation assay. It is filed as functional, Homo sapiens.

The structures appear in SMILES notation.

Chain of ATP-dependent translocase ABCB1 (P06795 whole entry): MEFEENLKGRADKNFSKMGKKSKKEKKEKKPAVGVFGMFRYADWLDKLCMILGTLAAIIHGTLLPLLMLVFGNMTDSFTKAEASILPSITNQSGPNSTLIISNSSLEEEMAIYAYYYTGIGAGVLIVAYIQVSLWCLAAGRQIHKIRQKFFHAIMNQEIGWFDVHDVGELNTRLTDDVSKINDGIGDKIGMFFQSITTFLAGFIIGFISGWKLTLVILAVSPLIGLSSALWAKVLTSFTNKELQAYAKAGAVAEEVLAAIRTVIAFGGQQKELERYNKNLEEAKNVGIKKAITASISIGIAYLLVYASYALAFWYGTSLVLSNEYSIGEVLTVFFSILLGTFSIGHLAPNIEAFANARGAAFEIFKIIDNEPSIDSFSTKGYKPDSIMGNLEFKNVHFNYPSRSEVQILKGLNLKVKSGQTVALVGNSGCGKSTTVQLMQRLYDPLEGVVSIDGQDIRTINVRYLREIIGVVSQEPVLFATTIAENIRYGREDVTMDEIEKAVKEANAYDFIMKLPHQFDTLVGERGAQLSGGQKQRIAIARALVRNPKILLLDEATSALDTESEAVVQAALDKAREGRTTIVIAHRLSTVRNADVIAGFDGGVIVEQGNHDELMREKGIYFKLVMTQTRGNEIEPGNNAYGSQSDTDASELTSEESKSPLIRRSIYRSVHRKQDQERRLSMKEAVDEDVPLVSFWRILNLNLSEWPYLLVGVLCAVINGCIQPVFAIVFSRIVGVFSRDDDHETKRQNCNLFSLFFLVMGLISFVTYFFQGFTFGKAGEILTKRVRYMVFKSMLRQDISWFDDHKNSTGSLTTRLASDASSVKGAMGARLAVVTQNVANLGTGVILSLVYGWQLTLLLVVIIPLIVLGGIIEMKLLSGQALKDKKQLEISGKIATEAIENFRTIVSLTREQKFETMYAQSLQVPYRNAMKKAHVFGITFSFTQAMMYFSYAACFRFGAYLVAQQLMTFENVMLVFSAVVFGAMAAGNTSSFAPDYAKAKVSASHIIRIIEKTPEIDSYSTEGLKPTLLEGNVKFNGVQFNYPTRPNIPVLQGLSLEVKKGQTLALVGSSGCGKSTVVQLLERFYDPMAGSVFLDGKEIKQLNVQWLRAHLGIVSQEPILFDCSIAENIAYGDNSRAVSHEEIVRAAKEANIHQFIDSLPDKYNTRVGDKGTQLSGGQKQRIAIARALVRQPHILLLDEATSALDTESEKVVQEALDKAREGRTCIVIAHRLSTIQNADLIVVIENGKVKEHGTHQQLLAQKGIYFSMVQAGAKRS
Chain of Multidrug resistance-associated protein 1 (P33527 whole entry): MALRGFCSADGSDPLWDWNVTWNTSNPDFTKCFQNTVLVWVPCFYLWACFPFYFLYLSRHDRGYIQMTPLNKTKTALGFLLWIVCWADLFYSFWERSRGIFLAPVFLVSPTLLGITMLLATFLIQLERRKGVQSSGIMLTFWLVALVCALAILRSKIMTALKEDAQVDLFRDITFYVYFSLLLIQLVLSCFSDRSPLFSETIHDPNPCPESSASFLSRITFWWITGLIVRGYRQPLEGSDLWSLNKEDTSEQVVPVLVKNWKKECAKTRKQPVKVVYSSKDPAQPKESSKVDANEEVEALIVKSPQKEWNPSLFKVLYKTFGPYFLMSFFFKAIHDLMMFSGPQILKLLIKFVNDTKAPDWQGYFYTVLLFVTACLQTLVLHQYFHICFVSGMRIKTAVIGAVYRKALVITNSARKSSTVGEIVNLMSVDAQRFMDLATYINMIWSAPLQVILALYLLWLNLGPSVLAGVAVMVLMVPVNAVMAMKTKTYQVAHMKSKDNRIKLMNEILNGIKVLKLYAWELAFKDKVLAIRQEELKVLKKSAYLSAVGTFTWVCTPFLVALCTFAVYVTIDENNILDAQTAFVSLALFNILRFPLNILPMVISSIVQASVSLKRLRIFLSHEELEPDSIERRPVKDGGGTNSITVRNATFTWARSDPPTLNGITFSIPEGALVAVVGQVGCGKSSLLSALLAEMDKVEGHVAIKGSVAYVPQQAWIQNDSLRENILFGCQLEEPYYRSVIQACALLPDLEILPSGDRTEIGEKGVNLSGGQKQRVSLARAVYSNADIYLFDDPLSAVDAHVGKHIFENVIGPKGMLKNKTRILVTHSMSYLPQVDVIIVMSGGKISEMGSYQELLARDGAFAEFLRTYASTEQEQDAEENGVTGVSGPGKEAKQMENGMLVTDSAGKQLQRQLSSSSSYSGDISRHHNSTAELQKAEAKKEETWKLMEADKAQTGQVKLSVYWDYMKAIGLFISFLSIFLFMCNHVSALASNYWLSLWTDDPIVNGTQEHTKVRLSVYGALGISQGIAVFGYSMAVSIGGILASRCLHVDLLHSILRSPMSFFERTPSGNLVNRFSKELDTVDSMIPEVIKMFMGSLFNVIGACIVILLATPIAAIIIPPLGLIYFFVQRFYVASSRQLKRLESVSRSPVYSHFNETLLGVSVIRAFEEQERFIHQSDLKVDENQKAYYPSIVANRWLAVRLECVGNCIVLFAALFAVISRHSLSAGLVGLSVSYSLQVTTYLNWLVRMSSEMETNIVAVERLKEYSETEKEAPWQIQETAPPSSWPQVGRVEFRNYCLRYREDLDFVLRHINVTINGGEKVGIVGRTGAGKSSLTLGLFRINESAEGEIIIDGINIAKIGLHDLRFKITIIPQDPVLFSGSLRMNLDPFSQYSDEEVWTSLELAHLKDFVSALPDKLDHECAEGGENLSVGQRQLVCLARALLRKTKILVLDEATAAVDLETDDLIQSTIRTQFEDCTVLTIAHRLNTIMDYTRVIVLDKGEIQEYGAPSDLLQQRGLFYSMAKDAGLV

For orientation: IC50 means the midpoint of a concentration-inhibition curve. Low readings indicate greater potency in that assay, high ones weaker potency in that assay. Consider `COc1cc2c(cc1OC)CN(CCn1c(-c3ccc(N(C)C)cc3)nc3cc(N)ccc3c1=O)CC2`, for which the figures for the IC50 in assay [1] and in assay [2] were 18.6 µM and 7.2 µM, respectively.
`COc1cc2c(cc1OC)CN(CCn1c(-c3ccc(C(C)C)cc3)nc3ccccc3c1=O)CC2`: the figures for the IC50 in assay [1] and in assay [2] were 0.5 µM and 1 µM, respectively.
The matching figures for `CN(C)c1ccc(-c2nc3ccccc3c(=O)n2CCN2CCN(c3ncccn3)CC2)cc1`: 36 µM and 0.39 µM.
Take `COc1cc2c(cc1OC)CN(CCn1c(-c3ccc(N(C)C)cc3)nc3c(C)cccc3c1=O)CC2`: the IC50 was determined as 6.35 µM in assay [1] and 0.63 µM in assay [2].
On the same counts, the results for `COc1cc2c(cc1OC)CN(CCn1c(-c3ccc(N(C)C)cc3)nc3cc([N+](=O)[O-])ccc3c1=O)CC2` are 2.02 µM and 1.1 µM.
On the same counts, the results for `CN(C)c1ccc(-c2nc3ccccc3c(=O)n2Cc2ccccc2)cc1` are more than 100 µM and 41 µM.
On the same counts, the results for `CN(C)c1ccc(-c2nc3ccccc3c(=O)n2CCN2CCc3ccccc3C2)cc1` are 3.2 µM and 5 µM.
In the case of `CN(C)c1ccc(-c2nc3ccccc3c(=O)n2CCc2ccncc2)cc1`, the IC50 was 3.33 µM in assay [1] and 10 µM in assay [2].
For the molecule `COc1cc2c(cc1OC)CN(CCn1c(-c3ccc(N(C)C)cc3)nc3cccc(Cl)c3c1=O)CC2`, the IC50 was 3.84 µM in assay [1] and 0.16 µM in assay [2].
Take `COc1cc2c(cc1OC)CN(CCn1c(-c3ccc(N(C)C)cc3)nc3ccc(Cl)cc3c1=O)CC2`: the IC50 is 1.56 µM in assay [1] and 1.7 µM in assay [2].
With `COc1cc2c(cc1OC)CN(CCn1c(-c3ccc(N(C)C)cc3)nc3c(Cl)cccc3c1=O)CC2`, the concentration for half-maximal inhibition (IC50) in assay [1] is 2.91 µM; in assay [2] it was 1.06 µM.
`COc1cc2c(cc1OC)CN(CCn1c(-c3ccccc3O)nc3ccccc3c1=O)CC2` came in with an IC50 in assay [1] of 95 µM.
With `COc1cc2c(cc1OC)CN(CCn1c(-c3cccc(N(C)C)c3)nc3ccccc3c1=O)CC2`, the results for the IC50 in assay [1] and in assay [2] were 4.5 µM and 1.6 µM, respectively.
On the same counts, the results for `COc1cc(C(=O)C(=O)N2CCCC[C@H]2C(=O)OC(CCCc2cccnc2)CCCc2cccnc2)cc(OC)c1OC` [BIRICODAR] are 5.18 µM and 5 µM.
As to `CCN(CC)c1ccc(-c2nc3ccccc3c(=O)n2CCN2CCc3cc(OC)c(OC)cc3C2)cc1`, the values for the IC50 in assay [1] and in assay [2] were more than 10 µM and 1.3 µM, respectively.
On to `CN(C)c1ccc(-c2nc3ccccc3c(=O)n2CC2CCCCC2)cc1`, for which the IC50 in assay [1] was found to be 10 µM; in assay [2], 14 µM.
On the same counts, the results for `COc1cc(C(=O)N2CCN(CCn3c(-c4ccc(N(C)C)cc4)nc4ccccc4c3=O)CC2)cc(OC)c1OC` are 7.2 µM and 4.2 µM.
The matching figures for `COc1cc2c(cc1OC)CN(CCn1c(-c3ccc(N(C)C)cc3)nc3cc(Cl)ccc3c1=O)CC2`: 1.33 µM and 1.35 µM.
As to `COc1cc2c(cc1OC)CN(CCn1c(-c3ccc(N(C)C)cc3)nc3ccc(N)cc3c1=O)CC2`, the IC50 in assay [1] came out at 7.6 µM; in assay [2] it was 2 µM.
The matching figures for `COc1cc2c(cc1OC)CN(CCn1c(-c3ccccc3)nc3ccccc3c1=O)CC2`: 2.8 µM and 8 µM.
With `CCCCCCn1c(-c2ccc(N(C)C)cc2)nc2ccccc2c1=O`, the IC50 in assay [1] was more than 100 µM; in assay [2], 40 µM.
On the same counts, the results for `COc1cc2c(cc1OC)CN(CCn1c(-c3ccc4c(c3)OCO4)nc3ccccc3c1=O)CC2` are 1.5 µM and 3.7 µM.
The matching figures for `CN(C)c1ccc(-c2nc3ccccc3c(=O)n2CCN2CCN(Cc3ccccc3)CC2)cc1`: 39 µM and 2.1 µM.
Broadly, the EC50 is the concentration at which the effect is half-maximal. With `COc1cc2c(cc1OC)CN(CCn1c(-c3ccc(N(C)C)cc3)nc3ccccc3c1=O)CC2`, the EC50 in the assay with EMT6 worked out at 3.3 µM; in assay [3] it was 3.01 µM. Also, the IC50 was 1.05 µM in assay [1] and 1.07 µM in assay [2].
As for `COc1cc2c(cc1OC)CN(CCn1c(-c3ccc(-c4ccccc4)cc3)nc3ccccc3c1=O)CC2`, the IC50 in assay [1] was 1 µM; in assay [2], 1.03 µM.
On the same counts, the results for `CCCc1cccc(-c2nc3ccccc3c(=O)n2CCN2CCc3cc(OC)c(OC)cc3C2)c1` are 1 µM and 0.8 µM.
Turning to `COc1cc2c(cc1OC)CN(CCn1c(-c3ccc(N(C)C)cc3)nc3ccc([N+](=O)[O-])cc3c1=O)CC2`, the IC50 turned out to be 0.4 µM in assay [1] and 0.6 µM in assay [2].
Turning to `COc1cc2c(cc1OC)CN(CCn1c(-c3ccc(N(C)C)cc3)nc3c(OC)cccc3c1=O)CC2`, the IC50 in assay [1] was 15.1 µM; in assay [2], 0.05 µM.
The matching figures for `COc1ccc(CCN(C)CCn2c(-c3ccc(N(C)C)cc3)nc3ccccc3c2=O)cc1OC`: 37 µM and 1.9 µM.
The matching figures for `COc1cc2c(cc1OC)CN(CCn1c(-c3ccc4ccccc4c3)nc3ccccc3c1=O)CC2`: 0.9 µM and 0.85 µM.

The values above are taken from ChEMBL document CHEMBL1135064, “Studies on quinazolinones as dual inhibitors of Pgp and MRP1 in multidrug resistance” (Bioorg Med Chem Lett, 2002).
